Measured values taken from article PMC7872314, “Modeling Bioavailable Concentrations in Zebrafish Cell Lines and Embryos Increases the Correlation of Toxicity Potencies across Test Systems” (Environmental Science & Technology, 2020).

How the values were obtained:
[1] = ref Comptox, PubChem or DrugBank; cited from earlier work
[2] = system: zebrafish embryos; parameters: method as in earlier work; details: nominal, cited from earlier work
[3] = system: rat cardiomyoblast cells vs fish / zebrafish embryos; assay: Potency ratios of the Rodrigues et al. data; details: bioavailable concentrations; embryo data chronic exposure 35 dpf

Row | SMILES | logKow [1] | pKa (Strongest Basic) [1] | further results
1 | CCNc1nc(Cl)nc(NC(C)C)n1 [Atrazine] | 2.61 | 1.6 | –
2 | CCOP(=S)(OCC)Oc1nc(Cl)c(Cl)cc1Cl [Chlorpyrifos] | 4.96 | -4.2 | Water Solubility [1]: 1.4 µg/mL
3 | CCOP(=S)(OCC)Oc1cc(C)nc(C(C)C)n1 [Diazinon] | 3.81 | 4.2 | –
4 | COP(=O)(OC)OC=C(Cl)Cl [Dichlorvos] | 1.43 | – | –
5 | COCC(=O)Nc1cc(Sc2ccccc2)ccc1N/C(=N\C(=O)OC)NC(=O)OC [Febantel, febantel] | – | – | EC50 ([2]; 144 hpf, converted): 0.761 µM; logEC50 144 hpf ([2]; log10): -6.118 M
6 | COP(=S)(OC)Oc1ccc([N+](=O)[O-])c(C)c1 [Fenitrothion] | 3.3 | – | –
7 | Cl[C@H]1[C@H](Cl)[C@@H](Cl)[C@@H](Cl)[C@H](Cl)[C@H]1Cl [Lindane] | 3.72 | – | Water Solubility [1]: 7.3 µg/mL; potency ratio (Rodrigues et al. data) [3]: 13.6
8 | CC1(C)C(C=C(Cl)Cl)C1C(=O)OCc1cccc(Oc2ccccc2)c1 (centres unmarked) [Permethrin] | 6.5 | -3.7 | –
9 | CNC(=O)Oc1ccccc1OC(C)C [Propoxur] | 1.52 | -4.9 | pKa (Strongest Acidic) [1]: 14.8
10 | CCNc1nc(Cl)nc(NC(C)(C)C)n1 [Terbuthylazine] | 3.21 | 2 | –
11 | c1ccc2[nH]c(-c3cscn3)nc2c1 [Thiabendazole] | 2.47 | 4.6 | –
